Data set [1] concerns AXIN2 transcripts in COLO320DM cells. Briefly: qPCR of AXIN2 transcripts in COLO320DM cells. It is filed as cell-based, human.
From the text: RT-qPCR. […] Relative gene expression levels were monitored using the Taqman Gene Expression probes for AXIN2 (Hs00610344 m1, ThermoFisher), SP5 (Hs01370227-mH, ThermoFisher), RNF43 (Hs00214886-m1, ThermoFisher), NOTUM (Hs00991061-m1, ThermoFisher), CXCL12 (Hs03676656-mH, ThermoFisher).
Data set [2] has as its target T1, full-length B-Catenin (Uniprot ID P35222) (Homo sapiens, UniProt P35222).
T1 construct: 10 nM full-length B-Catenin (Uniprot ID P35222)
T1 sequence (P35222 1-781): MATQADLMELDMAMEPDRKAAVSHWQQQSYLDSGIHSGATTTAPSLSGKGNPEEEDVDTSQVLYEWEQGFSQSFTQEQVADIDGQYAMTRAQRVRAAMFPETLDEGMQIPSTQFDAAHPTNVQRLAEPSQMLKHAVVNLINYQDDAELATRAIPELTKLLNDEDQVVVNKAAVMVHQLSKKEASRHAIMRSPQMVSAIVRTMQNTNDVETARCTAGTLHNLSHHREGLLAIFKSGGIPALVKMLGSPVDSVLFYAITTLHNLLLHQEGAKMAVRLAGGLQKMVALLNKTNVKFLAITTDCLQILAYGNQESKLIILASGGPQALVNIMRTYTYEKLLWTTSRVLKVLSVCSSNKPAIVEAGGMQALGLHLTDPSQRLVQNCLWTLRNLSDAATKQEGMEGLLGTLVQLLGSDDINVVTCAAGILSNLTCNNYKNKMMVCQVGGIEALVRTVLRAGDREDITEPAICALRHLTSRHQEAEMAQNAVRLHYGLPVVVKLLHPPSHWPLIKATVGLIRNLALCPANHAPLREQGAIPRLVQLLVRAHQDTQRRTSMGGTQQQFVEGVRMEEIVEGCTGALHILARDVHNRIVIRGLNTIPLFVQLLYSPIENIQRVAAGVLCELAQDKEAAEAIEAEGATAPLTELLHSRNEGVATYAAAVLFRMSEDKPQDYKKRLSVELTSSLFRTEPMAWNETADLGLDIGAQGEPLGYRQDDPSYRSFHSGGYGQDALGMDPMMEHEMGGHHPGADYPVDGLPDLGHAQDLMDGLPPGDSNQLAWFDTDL
It is filed as binding. The settings on record: read-out: Competition Fluorescence Polarization IC50.

In data set [3] the target is T2, beta-catenin/TCF4 interaction (Homo sapiens, UniProt P35222).
T2 construct: host or cells: HEK293
T2 sequence (P35222 1-781): T1 sequence (P35222 1-781)
The class given is cell-based. The following applies: read-out: NanoBRET IC50.

Data set [4] relates to beta-catenin driven transcription in HAP1 WT cells. The data set can be described thus: qPCR of beta-catenin driven transcription in HAP1 WT cells (CHIR treated). The class given is cell-based. The following applies: CHIR treated.
Data set [5] is described as follows: Mouse plasma pharmacokinetics (IV, IP). It is filed as in vivo. The following applies: single intraperitoneal (IP) dose at 100 mg/kg.
Method: Concentrations of agents in biological samples were measured by LC-MS/MS (Triple Quad 6500+). […] 8 uL of plasma or tissue lysate was used for LC method with mobile phase A (1% formic acid (FA, LS118-4, Fisher Scientific) in H2O) and mobile phase B (0.1% FA in ACN), 0.6 ml/min flow rate in Waters ACQUITY UPLC BEH C18 2.1*50 mm, 1.7 μm column. […] MS was conducted by electrospray ionization and multi reaction monitor scans. PK parameters such as plasma maximum concentration (Cmax), and AUC were analyzed by noncompartmental model 200 of Phoenix WinNonlin 8.3, using the linear/log trapezoidal method.
In some embodiments, concentrations of compounds, e.g., stapled peptides, in biological samples were measured by LC-MS/MS (Triple Quad 6500+). […] 8 uL of plasma or tissue lysate was used for LC method with mobile phase A (1% formic acid (FA, LS118-4, Fisher Scientific) in H2O) mobile phase B (0.1% FA in ACN), 0.6 ml/min flowrate in Waters ACQUITY UPLC BEH C18 2.1*50 mm, 1.7 um column. […] In some embodiments, MS was conducted by electrospray ionization and multi reaction monitor scans. In some embodiments, PK parameters such as plasma maximum concentration (Cmax), and AUC were analyzed by noncompartmental model 200 of Phoenix WinNonlin 8.3, using the linear/log trapezoidal method.
The target of data set [6] is T3, biotinylated B-Catenin residues 134-665 (Uniprot ID P35222) (Homo sapiens, UniProt P35222).
T3 construct: biotinylated B-Catenin residues 134-665 (Uniprot ID P35222)
T3 sequence (P35222 134-665): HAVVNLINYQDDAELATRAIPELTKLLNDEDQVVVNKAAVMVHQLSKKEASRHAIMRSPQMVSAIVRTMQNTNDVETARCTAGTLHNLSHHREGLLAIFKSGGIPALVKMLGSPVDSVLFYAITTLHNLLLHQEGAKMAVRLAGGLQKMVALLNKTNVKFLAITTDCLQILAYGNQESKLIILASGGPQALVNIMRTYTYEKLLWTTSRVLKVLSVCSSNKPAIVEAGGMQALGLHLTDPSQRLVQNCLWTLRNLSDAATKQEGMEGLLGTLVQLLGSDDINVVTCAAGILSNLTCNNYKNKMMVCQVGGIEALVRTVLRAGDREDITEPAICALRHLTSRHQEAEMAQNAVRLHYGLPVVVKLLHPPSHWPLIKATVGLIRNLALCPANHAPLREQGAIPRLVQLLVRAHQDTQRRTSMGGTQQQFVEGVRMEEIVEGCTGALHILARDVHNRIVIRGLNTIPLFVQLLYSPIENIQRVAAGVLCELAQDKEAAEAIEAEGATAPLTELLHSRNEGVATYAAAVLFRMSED
Briefly: Surface plasmon resonance (Biacore) binding to beta-catenin. The settings on record: read-out: SPR Kd.
Method: In some embodiments, binding to beta-catenin may be measured by surface plasmon resonance (SPR).
Peptides at 10 mM concentration in DMSO are diluted into Biacore™ running buffer (50 mM Tris pH 8.0, 300 mM NaCl, 2% glycerol, 0.5 mM TCEP, 0.5 mM EDTA, 0.005% Tween-20, 0.09% DMSO) to afford an appropriate dilution range. […] Results were analyzed using the Biacore™ Insight Evaluation Software, fitting to a 1:1 binding model.
SPR. In some embodiments, SPR may be utilized for characterizing or assessing interactions, bindings, etc. The following protocol is described as an example. In some embodiments, SPR experiments were performed on a Biacore™ 8K (Cytiva, Marlborough, MA) instrument at 25° C. Compounds were diluted into running buffer (50 mM Tris pH 8.0, 300 mM NaCl, 2% glycerol, 0.5 mM TCEP, 0.5 mM EDTA, 0.005% Tween-20, 1% DMSO). […] Results were analyzed using the Biacore™ Insight Evaluation software, with double referencing and fitted to a 1:1 binding affinity model.

For data set [7], the target named is T4, beta-catenin/TCF4 interaction (Homo sapiens, UniProt P35222).
T4 construct: endogenous in cells; host or cells: DLD1
T4 sequence (P35222 2-781 limits assumed): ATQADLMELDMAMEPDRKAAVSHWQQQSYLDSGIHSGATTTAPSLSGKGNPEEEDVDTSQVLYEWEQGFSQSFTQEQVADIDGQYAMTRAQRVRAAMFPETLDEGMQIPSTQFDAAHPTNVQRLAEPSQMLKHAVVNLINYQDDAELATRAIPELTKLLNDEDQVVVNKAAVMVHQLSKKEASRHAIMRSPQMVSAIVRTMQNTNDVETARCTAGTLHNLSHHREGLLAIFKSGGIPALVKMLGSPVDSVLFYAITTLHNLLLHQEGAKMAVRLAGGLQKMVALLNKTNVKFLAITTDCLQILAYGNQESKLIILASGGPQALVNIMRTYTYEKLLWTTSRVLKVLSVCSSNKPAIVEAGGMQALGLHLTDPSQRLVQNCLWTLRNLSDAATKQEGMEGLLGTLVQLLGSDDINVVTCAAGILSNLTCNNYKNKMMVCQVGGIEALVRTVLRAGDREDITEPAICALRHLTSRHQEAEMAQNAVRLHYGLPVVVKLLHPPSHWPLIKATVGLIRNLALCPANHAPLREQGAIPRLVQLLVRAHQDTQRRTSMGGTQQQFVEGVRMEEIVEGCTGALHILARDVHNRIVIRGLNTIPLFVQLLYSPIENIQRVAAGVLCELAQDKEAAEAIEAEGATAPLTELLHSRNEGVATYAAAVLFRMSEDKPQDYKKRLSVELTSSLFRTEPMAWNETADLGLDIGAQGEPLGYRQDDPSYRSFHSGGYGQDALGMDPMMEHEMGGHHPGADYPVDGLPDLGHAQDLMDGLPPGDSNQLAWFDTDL
The data set can be described thus: Co-immunoprecipitation of endogenous beta-catenin in DLD1 cells. It is filed as cell-based.
Method: Co-Immunoprecipitation. […] In some embodiments, for co-IP experiments, DLD1 cells were treated with compounds for a period of time, e.g., 4 hours. […] Briefly, 30 μL of protein A/G magnetic beads were added to each lysate and incubated for 1 hr at room temperature.

Where only a bound is given, the exact number is not on record here.

In the case of “Ac-PL3-Glu-Npg-B5-Glu-3COOHF-Aib-Ala-Phe-Lys*3-PyrS2-3Thi-BztA-GlnR*3-Ala-NH2 [I-470]”, the “effect on AXIN2 expression level” value in data set [1] (COLO320DM cells) is listed as “no or very little or non-significant effect”. In addition, the IC50 in data set [1] (Reduction of AXIN2 transcripts in COLO320DM cells) is > 20 µM; in data set [2] it was 7.5 µM; in data set [3], > 20 µM. Further, in data set [4], the “expression of AXIN2 and SP5 by qPCR (transcription)” value is on record as “No reduction”. Moreover, the “plasma AUC” value in data set [5] was “comparable”. The Kd in data set [6] is > 5 µM. Moreover, the “beta-catenin/TCF4 interaction by co-IP and Western blotting” value in data set [7] is on record as “not”.
